In patent US20130018360A1 (priority 2011, published 2013):

Tested on: IOP (intra-ocular pressure)
Assay: Clinical studies: change from baseline IOP after 20 nL nanodoses of bimatoprost
Assay type: in vivo, humans
Settings: ~1 μg BP dosed as 20 nL on Days 0-3; IOP collected ~24 hours post-dose
Experimental: These IOP (intra-ocular pressure) data were collected ˜24 hours post-dose on each day. […] The Day 5 data shown in FIG. 1 below are the change from baseline IOP values following application of Lumigan.

SMILES: CCNC(=O)CCC/C=C\C[C@@H]1[C@@H](/C=C/[C@@H](O)CCc2ccccc2)[C@H](O)C[C@@H]1O [BP, bimatoprost]
- IOP-lowering effect (change from baseline IOP): IOP-lowering effect can occur
